Consider 1 compound from PMC7673680, “Small-molecule sequestration of amyloid-β as a drug discovery strategy for Alzheimer’s disease” (Science Advances, 2020).

This assay has as its target T1, amyloid-β 42 (Aβ42), monomeric (Homo sapiens, UniProt P05067).
T1 construct: gene APP; Aβ42, monomeric 42-residue peptide, N-terminally biotinylated for BLI
Put plainly: biolayer interferometry (kon/koff global fit); supported by 2D HN-BESTCON NMR and dot-blot sequestration fit (Kd […]). The assay is classed as binding. (In general: BLI is a label-free optical method that tracks binding on a fibre tip over time.)

T1 sequence (P05067 672-713): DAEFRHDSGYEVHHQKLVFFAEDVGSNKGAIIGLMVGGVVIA

Regarding `O=[N+]([O-])c1ccc(Nc2ccccc2-c2ccccc2)c2nonc12` [10074-G5, biphenyl-2-yl-(7-nitro-benzo[1,2,5]oxadiazol-4-yl)-amine], the Kd was 6 µM.

The term Kd denotes the constant that tells how readily two partners part at equilibrium. Higher therefore signals weaker binding.
